Source: US12582657B2, “Combination therapy including a KRAS G12C inhibitor and one or more additional pharmaceutically active agents for the treatment of cancers” (Amgen Inc., priority 2018, dated 2026)

Key:
Assay type in all cases: cell-based
MIA PaCa-2 cells [1] = experiment: Cell viability assay (CellTiter-Glo, adherent); settings: Homo sapiens, 72-hour treatment
Method: For adherent viability assays, 0.5-1.0E+03 cells were seeded per well in 384-well plates (or 2.5-4.0E+04 cells per well in 96-well plates) and incubated at 37° C., 5% CO2, o/n. The following day, serially-diluted compound or DMSO was added to the cells, and the plates were incubated at 37° C., 5% CO2 for 72 hours. Cell viability was measured using a CellTiter-Glo® Luminescent Cell Viability Assay kit (Promega) according to the manufacturer's protocol. The luminescence signal of treated samples was normalized to DMSO control.

MIA PaCa-2 cells [2] = experiment: Spheroid cell viability assay (CellTiter-Glo 3D); settings: Homo sapiens; MIA PaCa-2, pancreas, KRAS p.G12C homozygous; 72-hour treatment, spheroid culture
Method: (§1) For spheroid viability assays, 2.5-4.0E+04 cells were seeded per well in 96-well spheroid microplates (Corning) and incubated at 37° C., 5% CO2 for 24 hours. The same procedure was followed as described above, except viability was measured using a CellTiter-Glo® 3D Cell Viability Assay kit (Promega) according to the manufacturer's protocol.

NCI-H1373 cells = experiment: Spheroid cell viability assay (CellTiter-Glo 3D); settings: Homo sapiens; NCI-H1373, lung, KRAS p.G12C homozygous; 72-hour treatment, spheroid culture
Method: as §1

NCI-H358 cells = experiment: Spheroid cell viability assay (CellTiter-Glo 3D); settings: Homo sapiens; NCI-H358, lung, KRAS p.G12C heterozygous; 72-hour treatment, spheroid culture
Method: as §1

NCI-H2122 cells = experiment: Spheroid cell viability assay (CellTiter-Glo 3D); settings: Homo sapiens; NCI-H2122, lung, KRAS p.G12C homozygous; 72-hour treatment, spheroid culture
Method: as §1

SW1573 cells = experiment: Spheroid cell viability assay (CellTiter-Glo 3D); settings: Homo sapiens; SW1573, lung, KRAS p.G12C homozygous; 72-hour treatment, spheroid culture
Method: as §1

C=CC(=O)N1CCN(c2nc(=O)n(-c3c(C)ccnc3C(C)C)c3nc(-c4c(O)cccc4F)c(F)cc23)[C@@H](C)C1 (atropisomer, axis not shown) [AMG 510, 6-fluoro-7-(2-fluoro-6-hydroxyphenyl)-1-(4-methyl-2-(2-propanyl)-3-pyridinyl)-4-((2S)-2-methyl-4-(2-propenoyl)-1-piperazinyl)pyrido[2,3-d]pyrimidin-2(1H)-one]
IC50 (MIA PaCa-2 cells [1]; second of two lines (FIG. 40G: MIA PaCa-2), read-out: cellular viability IC50): ~9 nM | IC50 (MIA PaCa-2 cells [1]; MIA PaCa-2, pancreas, KRAS p.G12C homozygous, adherent, read-out: Cell Viability IC50): 5 ± 1 nM | IC50 (MIA PaCa-2 cells [2]): 1 ± 1 nM | IC50 (NCI-H1373 cells): 5 ± 2 nM | IC50 (NCI-H358 cells): 3 ± 2 nM | IC50 (NCI-H2122 cells): 9 ± 2 nM | IC50 (SW1573 cells): > 10 µM
